One block for each compound: values may come before it.
Key:
[1] = Visual observation of appearance (solubility, miscibility) in solvents, solvent blends and gel bases; type: physicochemical
Protocol: Conductivity in mixtures of a solvent in combination with choline and geranic acid were done separately.
(§1) Propylene glycol: Samples were made by first starting with 5 grams of each raw material; geranic acid first then repeated with choline (bicarbonate). In summary 1-3 grams of propylene glycol was added to the raw material being tested and mixed. A visual observation was made along with a conductivity measurement.
as §1, with “Ethanol:” for “Propylene glycol:”
as §1, with “Diisopropyl adipate:” for “Propylene glycol:”, “summary,” for “summary”
(§2) The solvents investigated included: water, propylene glycol, glycerin, PEG400, ethanol, diisopropyl adipate, mineral oil, propylene glycol/ethanol/water, and glycerin/PEGG400/water. […] Observations were taken at each concentration. Conductivity measurements were taken at each titrated point for information only at this stage. Scales on subsequent graphs are appropriate for each solvent's values.
No conductivity measurements were taken.
(§3) A visual observation was made along with a conductivity measurement. The process was continued until ˜25 grams of product was reached. The resulting product was stored for later evaluation.
as §3, §3, §3, §3, §3
1-3 grams of water was added and mixed. A visual observation was made along with a conductivity measurement. The process was continued until ˜16 grams of product was reached. The resulting product was stored for later evaluation.
1-3 grams of water was added and mixed. A visual observation was made along with a conductivity measurement. The process was continued until ˜20 grams of product was reached. The resulting product was stored for later evaluation. […]
A similar experiment with the propylene glycol formulation was performed. The results are shown in Table 23, Table 24, and FIG. 28.
(§4) The conductivity is shown in FIG. 32 and the appearance is described in Table 28.

[2] = Conductivity measurement in solvents, solvent blends and gel bases; type: physicochemical
Protocol: Conductivity in mixtures of a solvent in combination with choline and geranic acid were done separately. […]
as §1, with “Ethanol:” for “Propylene glycol:”, “measurement. […]” for “measurement.”
as §2, §3, §3, §3, §3, §3
A visual observation was made along with a conductivity measurement. The process was continued until ˜25 grams of product was reached. The resulting product was stored for later evaluation. […]
as §4

[3] = 19% geranic acid, 81% ethanol 200 proof
[4] = 20% geranic acid, 80% ethanol 200 proof
[5] = 22% geranic acid, 78% ethanol 200 proof
[6] = 24% geranic acid, 76% ethanol 200 proof
[7] = 26% geranic acid, 74% ethanol 200 proof
[8] = 29% geranic acid, 71% ethanol 200 proof
[9] = 33% geranic acid, 67% ethanol 200 proof
[10] = 36% geranic acid, 64% propylene glycol
[11] = 38% geranic acid, 62% ethanol 200 proof
[12] = 45% geranic acid, 55% ethanol 200 proof
[13] = 56% geranic acid, 44% ethanol 200 proof
[14] = 56% geranic acid, 44% propylene glycol
[15] = 71% geranic acid, 29% ethanol 200 proof
[16] = 71% geranic acid, 29% propylene glycol
[17] = 71.43% geranic acid, 28.57% diisopropyl adipate
[18] = 83% geranic acid, 17% ethanol 200 proof
[19] = 83% geranic acid, 17% propylene glycol
[20] = 83.33% geranic acid, 16.67% diisopropyl adipate
[21] = 100.00% geranic acid, 0.00% diisopropyl adipate
[22] = 100% geranic acid, 0% ethanol 200 proof
[23] = 100% geranic acid, 0% propylene glycol

miscibility with diisopropyl adipate [1]: not miscible
Compound: C[N+](C)(C)CCO [Choline Bicarbonate, choline bicarbonate]

Conductivity [2, 3]: 0.00064 mS/cm | Conductivity [2, 4]: 0.00064 mS/cm | Conductivity [2, 5]: 0.00066 mS/cm | Conductivity [2, 6]: 0.00068 mS/cm | Conductivity [2, 7]: 0.00072 mS/cm | Conductivity [2, 8]: 0.00074 mS/cm | Conductivity [2, 9]: 0.00083 mS/cm | Conductivity [2, 10]: 0.00009 mS/cm | Conductivity [2, 11]: 0.00061 mS/cm | Conductivity [2, 12]: 0.00048 mS/cm | Conductivity [2, 13]: 0.00022 mS/cm | Conductivity [2, 14]: 0.00008 mS/cm | Conductivity [2, 15]: 0.00003 mS/cm | Conductivity [2, 16]: 0.00008 mS/cm | Conductivity [2, 17]: 0 mS/cm | Conductivity [2, 18]: 0.00001 mS/cm | Conductivity [2, 19]: 0.00000 mS/cm | Conductivity [2, 20]: 0 mS/cm | Conductivity [2, 21]: 0 mS/cm | Conductivity [2, 22]: 0.00000 mS/cm | Conductivity [2, 23]: 0.00000 mS/cm | contribution to the overall conductivity ([2]; mixtures with solvent): effectively zero | Appearance [1, 3]: Clear solution | Appearance [1, 4]: Clear solution | Appearance [1, 5]: Clear solution | Appearance [1, 6]: Clear solution | Appearance [1, 7]: Clear solution | Appearance [1, 8]: Clear solution | Appearance [1, 9]: Clear solution | Appearance [1, 10]: Clear solution | Appearance [1, 11]: Clear solution | Appearance [1, 12]: Clear solution | Appearance [1, 13]: Clear solution | Appearance [1, 14]: Clear solution | Appearance [1, 15]: Clear solution | Appearance [1, 16]: Clear solution | Appearance [1, 17]: Clear solution | Appearance [1, 18]: Clear solution | Appearance [1, 19]: Clear solution | Appearance [1, 20]: Clear solution | Appearance [1, 21]: Clear solution | Appearance [1, 22]: Clear solution | Appearance [1, 23]: Clear solution
Compound: CC(C)=CCC/C(C)=C/C(=O)O [Geranic Acid, 3,7-dimethyl-2,6-octadienoic acid]
